PubChem BioAssay AID1189 (EPA DSSTox, 2008)
Activity calls are given as the source filed them.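 Rule for the calls: active = a tumor-causing dose value with its tumor site reported for any sex and species group of a rodent or other animal cancer study; inconclusive = only studies judged inadequate by the national testing program; inactive = tested in at least one study, none positive.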

Experiment: DSSTox (CPDBAS) Carcinogenic Potency Database Summary SingleCellCall Results
Settings: animal chronic carcinogenicity bioassays, CPDB summary call
Procedure, shortened: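 Categorical carcinogenicity call compiled from published chronic rodent and other animal cancer bioassays; based on the most positive result across experiments for each sex-species, assigned on minimal evidence for or against activity.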

In the case of `O=C(O)CCl`, the outcome is reported as “inactive; active”.

For `CCCCOCCO`, the outcome was “active”.

For `Cc1cc(O)c(C(C)(C)C)cc1Sc1cc(C(C)(C)C)c(O)cc1C`, the outcome was “inactive”.

With `O=NN(CCO)CCO` the outcome was “active; inactive”.

In the case of `c1ccc2n[nH]nc2c1`, the outcome is reported as “inactive”.

For `Cn1cc(OCC(O)CNC(C)(C)C)c2ccccc2c1=O` (centres undefined), the outcome was “inactive; active”.

With `Nc1ccc([N+](=O)[O-])cc1N` the outcome was “inactive; active”.

With `CCOc1ccc(NC(C)=O)cc1[N+](=O)[O-]` the outcome was “active”.

In the case of `NNc1nc(-c2ccccc2)cs1`, the outcome is reported as “inactive”.

In the case of `FC(F)(F)C(Cl)Cl`, the outcome is reported as “active”.

For `CCOCCc1c(-c2ccccc2)nc(N)n2ncnc12`, the outcome was “active; inactive”.

With `C=CC(OC(C)=O)c1ccc2c(c1)OCO2` (centres undefined) the outcome was “active”.

In the case of `CC(C)(Oc1ccc(C2CC2(Cl)Cl)cc1)C(=O)O` (centres undefined), the outcome is reported as “active”.

With `CCCCN(N=O)C(N)=O` the outcome was “active”.

For `OCl`, the outcome was “inactive”.

In the case of `O=NN1CC=CCO1`, the outcome is reported as “active”.

For `CN(C)c1ccc(C(=O)c2ccc(N(C)C)cc2)cc1`, the outcome was “active”.

In the case of `CCN(CC)CCCNC(=O)Cn1ncc(-c2ccccc2)c1-c1ccccc1`, the outcome is reported as “inactive”.

With `Cc1ncc([N+](=O)[O-])n1CCO` the outcome was “active”.

For `ClC1=C(Cl)C2(Cl)C3C(Cl)C=CC3C1(Cl)C2(Cl)Cl` (centres undefined), the outcome was “active”.

For `CC1CN(N=O)CC(C)N1N=O` (centres undefined), the outcome was “active”.

In the case of `O=NN1CCCCC1`, the outcome is reported as “active; inactive”.

For `Clc1cccc(-c2cccc(Cl)c2)c1`, the outcome was “active”.

With `O=NN1CCCCCC1` the outcome was “active”.

With `O=[N+]([O-])c1ccc(NCCO)c(OCCO)c1` the outcome was “inactive”.

In the case of `O=NN(CC(F)(F)F)CC(F)(F)F`, the outcome is reported as “inactive”.

In the case of `ClCC(Cl)CCl`, the outcome is reported as “active; inactive”.

In the case of `O=C(c1ccccc1)C(O)c1ccccc1` (centres undefined), the outcome is reported as “inactive; active”.

For `N#Cc1ccc(C2CCCc3cncn32)cc1` (centres undefined), the outcome was “inactive; active”.

With `CCN(CC)C(C)=O` the outcome was “active”.

For `c1ccc(N=Nc2ccccc2)cc1`, the outcome was “active”.

In the case of `P`, the outcome is reported as “inactive”.

With `O=P(=O)O` the outcome was “inactive”.

For `CCC1(c2ccccc2)C(=O)NCNC1=O`, the outcome was “active”.

With `NC(=O)N(CC(=O)O)N=O` the outcome was “active; inactive”.

With `Cn1cc[nH]c1=S` the outcome was “active; inactive”.

In the case of `CCOP(=O)=O.CCOP(=O)=O.CCOP(=O)=O.[Al+3]`, the outcome is reported as “active; inactive”.

For `NCCS(=O)(=O)O`, the outcome was “inactive; active”.

For `COCCl`, the outcome was “active; inactive”.

For `ClC1=C(Cl)[C@]2(Cl)[C@@H]3[C@@H]4C[C@@H]([C@H]5O[C@@H]45)[C@@H]3[C@@]1(Cl)C2(Cl)Cl`, the outcome was “active”.

For `Nc1ccc(Oc2ccc(Cl)cc2)cc1`, the outcome was “active”.

In the case of `ON=C1CCCC1`, the outcome is reported as “active; inactive”.

For `c1ccc(-c2ccccc2)cc1`, the outcome was “inactive; active”.

With `CNc1ncnc2c1ncn2[C@@H]1O[C@H](CO)[C@@H](O)[C@H]1O` the outcome was “inactive; active”.

In the case of `CS(=O)(=O)OCCCNCCCOS(C)(=O)=O`, the outcome is reported as “inactive; active”.

With `Nc1ccc(Oc2ccc(N)c(N)c2)cc1` the outcome was “active”.

For `CCCCN(CCCCO)N=O`, the outcome was “active; inactive”.

For `CC(C)NCC(O)c1ccc(NS(C)(=O)=O)cc1` (centres undefined), the outcome was “inactive”.

For `CC1CC(=O)O1` (centres undefined), the outcome was “active”.

For `Cc1cc(N=Nc2ccccc2C)ccc1N`, the outcome was “active”.

With `COC(=O)C1=CCCN(N=O)C1` the outcome was “inactive”.

For `CN(C)c1ccc(N=Nc2ccccc2)cc1`, the outcome was “active”.

In the case of `C[C@]12C=CC(=O)C=C1CC[C@@H]1[C@@H]2C(=O)C[C@@]2(C)[C@H]1CC[C@]2(O)C(=O)CO`, the outcome is reported as “inactive”.

With `Nc1ncc([N+](=O)[O-])s1` the outcome was “active”.

For `ClC(Cl)=C(Cl)C(Cl)=C(Cl)Cl`, the outcome was “active”.

For `NCCCCCC(=O)O`, the outcome was “inactive; active”.

For `O=C(O)CC[N+](=O)[O-]`, the outcome was “inactive; active”.

For `C[C@H](CCC(=O)O)[C@H]1CC[C@H]2[C@@H]3[C@H](O)C[C@@H]4C[C@H](O)CC[C@]4(C)[C@H]3CC[C@]12C`, the outcome was “inactive”.

For `FC(F)Cl`, the outcome was “inactive”.

With `OC[C@@H](O)[C@H]1O[C@@H]2O[C@H](C(Cl)(Cl)Cl)O[C@@H]2[C@H]1O` the outcome was “inactive”.

In the case of `CCCCCC(/C=C/C=C\CCCCCCCC(=O)OC)OO` (centres undefined), the outcome is reported as “inactive”.

For `ClCC(Cl)(Cl)Cl`, the outcome was “active; inactive”.

With `O=C1CC(=O)NC(=O)N1` the outcome was “inactive”.

With `CCCCNC(=O)NS(=O)(=O)c1ccc(C)cc1` the outcome was “inactive”.

For `O=c1[nH]nc(-c2ccc([N+](=O)[O-])o2)o1`, the outcome was “active; inactive”.

With `c1ccncc1` the outcome was “active”.

In the case of `COc1ccc(O)c(C(C)(C)C)c1`, the outcome is reported as “active; inactive”.

With `Nc1cc(Cl)c(-c2cc(Cl)c(N)cc2Cl)cc1Cl` the outcome was “inactive”.

For `Cc1noc(NS(=O)(=O)c2ccc(N)cc2)c1C`, the outcome was “inactive”.

For `COc1cccc2c1C(=O)c1c(O)c3c(c(O)c1C2=O)C[C@@](O)(C(=O)CO)C[C@@H]3O[C@H]1C[C@H](N)[C@H](O)[C@H](C)O1`, the outcome was “inactive; active”.

With `Cc1cnc(NC(=O)C2=C(O)c3ccccc3S(=O)(=O)N2C)s1` the outcome was “inactive”.

With `O=NN(CCCC(F)(F)F)CCCC(F)(F)F` the outcome was “active”.

For `CC(=O)c1ccc(S(=O)(=O)NC(=O)NC2CCCCC2)cc1`, the outcome was “inactive”.

For `CC(C)[N+](=O)[O-]`, the outcome was “inactive; active”.

In the case of `ClC1=C(Cl)C(Cl)(Cl)C(Cl)=C1Cl`, the outcome is reported as “inactive; active”.

With `C=C(C)C` the outcome was “active”.

With `O=[O+][O-]` the outcome was “active”.

For `C=CC(=O)NCO`, the outcome was “active; inactive”.

With `ClCc1ccccc1` the outcome was “active”.

In the case of `Cc1ncc[nH]1`, the outcome is reported as “active”.

In the case of `Cc1ccc(NC(N)=O)cc1`, the outcome is reported as “active”.

For `OCCN(CCO)C(=S)S`, the outcome was “active”.

With `O=C1C(c2[nH]c3ccc(S(=O)(=O)O)cc3c2O)=Nc2ccc(S(=O)(=O)O)cc21` the outcome was “inactive; active”.

In the case of `CC1(C)[C@@H](O)CC[C@]2(C)[C@H]3C(=O)C=C4[C@@H]5C[C@@](C)(C(=O)O)CC[C@]5(C)CC[C@@]4(C)[C@]3(C)CC[C@@H]12`, the outcome is reported as “inactive”.

In the case of `Cn1cc(C(=O)O)c(=O)c2ccc(/C=C/c3ccc([N+](=O)[O-])o3)nc21`, the outcome is reported as “active; inactive”.

With `CC(=O)O[C@H]1CC[C@@]2(C)C(=CC[C@@H]3[C@@H]2CC[C@]2(C)C(=O)CC[C@@H]32)C1` the outcome was “active”.

In the case of `CN(C)C=O`, the outcome is reported as “inactive; active”.

In the case of `Oc1c(Cl)cc(Cl)c(Cl)c1Cc1c(O)c(Cl)cc(Cl)c1Cl`, the outcome is reported as “inactive”.

With `CCN(CC)C(=O)/C(Cl)=C(\C)OP(=O)(OC)OC` the outcome was “inactive”.

In the case of `Brc1cc(Br)c(-c2c(Br)c(Br)c(Br)c(Br)c2Br)c(Br)c1Br`, the outcome is reported as “active; inactive”.

For `O=NN(CCO)C(=O)NCCCl`, the outcome was “active”.

With `Oc1cccc2cccnc12.Oc1cccc2cccnc12.[Cu]` the outcome was “inactive”.

For `C=C(C)[C@H]1CC=C(C)C(=O)C1`, the outcome was “inactive; active”.

With `OCCO` the outcome was “inactive”.

With `[Se]` the outcome was “inactive”.

For `CCCCC(C)(O)C/C=C/[C@H]1[C@H](O)CC(=O)[C@@H]1CCCCCCC(=O)OC` (some centres undefined), the outcome was “inactive; active”.

For `[O]N=O`, the outcome was “inactive”.

With `O=CNNc1nc(-c2ccco2)cs1` the outcome was “inactive”.

For `O=[N+]([O-])c1cccc2cccnc12`, the outcome was “active; inactive”.

For `O=c1cc[nH]c(=O)[nH]1`, the outcome was “active; inactive”.

With `CN(C)/N=N/c1nc[nH]c1C(N)=O` the outcome was “active”.

In the case of `OC(c1ccc(Cl)cc1)(c1ccc(Cl)cc1)C(Cl)(Cl)Cl`, the outcome is reported as “active”.

For `COC(=O)c1ccc(C(=O)OC)cc1`, the outcome was “inactive; active”.

With `C[N+](=O)[O-]` the outcome was “active”.

In the case of `CCNc1nc(Cl)nc(NC(C)(C)C#N)n1`, the outcome is reported as “active”.

For `CC(=O)Oc1ccccc1C(=O)O`, the outcome was “inactive”.

With `O=C1c2ccccc2C(=O)c2c(O)cccc21` the outcome was “active”.

For `OC[C@H]1O[C@@H]2O[C@H]3[C@H](O)[C@@H](O)[C@@H](O[C@H]4[C@H](O)[C@@H](O)[C@@H](O[C@H]5[C@H](O)[C@@H](O)[C@@H](O[C@H]6[C@H](O)[C@@H](O)[C@@H](O[C@H]7[C@H](O)[C@@H](O)[C@@H](O[C@H]8[C@H](O)[C@@H](O)[C@@H](O[C@H]1[C@H](O)[C@H]2O)O[C@@H]8CO)O[C@@H]7CO)O[C@@H]6CO)O[C@@H]5CO)O[C@@H]4CO)O[C@@H]3CO`, the outcome was “inactive”.

In the case of `O=C(O)c1ccncc1`, the outcome is reported as “inactive”.

For `c1ccc2occc2c1`, the outcome was “active; inactive”.

With `CC(C)(CCCOc1ccc(OCCCC(C)(C)C(=O)O)c(-c2ccccc2)c1)C(=O)O` the outcome was “active”.

With `CCCCN(CCCC)C(=S)[S-].CCCCN(CCCC)C(=S)[S-].[Zn+2]` the outcome was “inactive”.

For `O=NN1CCCCCCC1`, the outcome was “active”.

In the case of `CN1C(C(=O)Nc2ccccn2)=C(O)c2ccccc2S1(=O)=O`, the outcome is reported as “inactive”.

With `C=C(Cl)CSC(=S)N(CC)CC` the outcome was “active; inactive”.

With `O=S(=O)(Oc1ccc(Cl)cc1)c1ccc(Cl)cc1` the outcome was “inactive”.

With `CC1=CC(=O)NS(=O)(=O)O1` the outcome was “inactive”.

For `C=COC(N)=O`, the outcome was “active; inactive”.

For `[N]=O`, the outcome was “inactive”.

In the case of `CCC(CC)C(=O)NC(N)=O`, the outcome is reported as “inactive; active”.

In the case of `CC(=O)Nc1ccc(N=Nc2cc(C)ccc2O)cc1`, the outcome is reported as “active; inactive”.

With `C=CCNN` the outcome was “active”.

In the case of `CC(C)OC(=O)Nc1cccc(Cl)c1`, the outcome is reported as “inactive; active”.

With `NC(=O)c1cccnc1` the outcome was “inactive”.

For `O=S(=O)(O)NC1CCCCC1`, the outcome was “active”.

In the case of `S=C=NCCc1ccccc1`, the outcome is reported as “inactive; active”.

For `CC(F)(Cl)Cl`, the outcome was “active”.

With `[CH3][Hg][Cl]` the outcome was “active”.

In the case of `Nc1nc(N)nc(N)n1`, the outcome is reported as “active”.

For `CC(COc1ccc(C(C)(C)C)cc1)OS(=O)OCCCl` (centres undefined), the outcome was “active”.

In the case of `COc1c2occc2cc2ccc(=O)oc12`, the outcome is reported as “active”.

In the case of `CC1(C)C(=O)NC(=O)NC1=O`, the outcome is reported as “inactive; active”.

With `NC(=O)CI` the outcome was “inactive; active”.

For `C=CCN(CC(O)CO)N=O` (centres undefined), the outcome was “active”.
